# Measurements taken from US20090221624A1, “4-AMINOQUINOLINE COMPOUNDS FOR TREATING VIRUS-RELATED CONDITIONS” (priority 2005, published 2009).
# Read-outs that look alike come from different tables or passages of the source.
# Columns and labels:
# RSV minigenome = test: RSV minigenome-dependent β-galactosidase expression assay (RSV β-Gal); type: cell-based, respiratory syncytial virus; settings: for EC50: Secondary Data, RSV, read-out: RSV EC50; for inhibition at 25 µM: primary screening, 25 μM final concentration, 24 hours, percent inhibition of viral replication, read-out: RSV Inh; for RSV TI: therapeutic index CC50/EC50, RSV
# WNV (WN-hRuPac cells) = test: WNV antiviral activity, WN-hRuPac cells, Renilla luciferase; type: cell-based, West Nile virus; settings: for EC50 / inhibition at 25 µM: West Nile virus; for EC50: Secondary Data, WNV, read-out: WNV EC50; for inhibition at 25 µM: primary screening, 25 μM final concentration, 24 hours, percent inhibition of viral replication, read-out: WNV Inh; for WNV TI: therapeutic index CC50/EC50, WNV
# [1] = test system: HCV replicon (Clone A cells, Huh7, subgenomic hepatits C virus RNA); test: HCV Neo screening assay (HCV replicon, NPTII ELISA); type: cell-based, hepatitis C virus; settings: for inhibition at 25 µM / EC50: Hepatitis C virus, Huh-7; for inhibition at 25 µM: primary screening, 25 μM final concentration, 24 hours, percent inhibition of viral replication, read-out: HCV Inh; for EC50: Secondary Data, HCV; for HCV TI: therapeutic index CC50/EC50, HCV
# SINV (SR19-F-luc cells) = test: SINV antiviral activity, SR19-F-luc cells, Firefly luciferase; type: cell-based; settings: Sindbis virus; for inhibition at 25 µM: primary screening, 25 μM final concentration, 24 hours, percent inhibition of viral replication, read-out: SINV Inh; for EC50: secondary screening, SR19-F-luc cells
# EBOV minigenome = test: microbe, parasite or virus in culture; type: cell-based, Ebola virus; settings: for inhibition at 25 µM / EC50: Zaire ebolavirus; for inhibition at 25 µM: 24 h, read-out: EBOV Inh; for EC50: read-out: EBOV EC50
# YFV (YF-hRuPac cells) = test: microbe, parasite or virus in culture; type: cell-based, yellow fever virus; settings: for inhibition at 25 µM / EC50: Yellow fever virus; for inhibition at 25 µM: 24 h, read-out: YFV Inh; for EC50: read-out: YFV EC50
# DNG (D2-hRuPac cells) = test: DNG antiviral activity, D2-hRuPac cells, Renilla luciferase; type: cell-based, Dengue fever virus; settings: Dengue virus, secondary screening
# [2] = human respiratory syncytial virus
Compound,EC50 (RSV minigenome; [2]) [µM],inhibition at 25 µM (RSV minigenome; [2]) [%],RSV TI (RSV minigenome),EC50 (WNV (WN-hRuPac cells)) [µM],inhibition at 25 µM (WNV (WN-hRuPac cells)) [%],WNV TI (WNV (WN-hRuPac cells)),inhibition at 25 µM [1] [%],inhibition at 25 µM (SINV (SR19-F-luc cells)) [%],inhibition at 25 µM (EBOV minigenome) [%],EC50 (EBOV minigenome) [µM],YFV TI (YFV (YF-hRuPac cells)),inhibition at 25 µM (YFV (YF-hRuPac cells)) [%],EC50 (YFV (YF-hRuPac cells)) [µM],CC50 (in vitro; DNG CC50) [µM],CC50 (in vitro; EBOV CC50) [µM],CC50 (in vitro; RSV CC50) [µM],CC50 (in vitro; SINV CC50) [µM],CC50 (in vitro; WNV CC50) [µM],CC50 (in vitro; YFV CC50) [µM],CC50 (in vitro; HCV CC50) [µM],further results
CCOC(=O)c1cnc2ccc(F)cc2c1NCCCN(C)C [Compound 66],44.8,17.6,1.44,22.9,40.8,2.82,39.6,14.9,84.1,14.1,0.86,11.4,≥ 75,64.6,64.6,64.6,64.6,64.6,64.6,–,EC50 (SINV (SR19-F-luc cells)): 9.53 µM; EC50 (DNG (D2-hRuPac cells)): 51.4 µM
COc1ccc2nc(C)cc(Nc3ccc(I)cc3)c2c1 [Compound 76],18.2,75.9,1.95,50.4,85.9,0.7,152,93.5,93.9,19.8,3.98,93.1,8.92,35.5,35.5,35.5,35.5,35.5,35.5,21.5,EC50 [1]: 11.3 µM; HCV TI [1]: 1.9; EC50 (SINV (SR19-F-luc cells)): 2.55 µM; EC50 (DNG (D2-hRuPac cells)): 13.5 µM
CCOC(=O)c1cnc2c(OC)cccc2c1NCCCO [Compound 70],3.02,95.8,15.15,–,14.6,–,55.6,64.5,74.7,69.7,–,62.6,–,45.8,45.8,45.8,45.8,45.8,45.8,≥ 75,–
CCOC(=O)c1cnc2c(OC)cccc2c1NCc1cccnc1 [Compound 68],3,98.9,17,–,49.7,–,44.7,72.8,74.5,68.7,–,71.8,–,51,51,51,51,51,51,–,–
COc1ccccc1Nc1cc(C)nc2c(C)c(C)cc(N)c12 [Compound 77],–,–,11.07,–,–,–,–,–,–,75,–,–,–,52.6,52.6,52.6,52.6,52.6,52.6,–,EC50 (RSV minigenome): 4.75 µM; EBOV Inh (EBOV minigenome): 94.37%
CCOC(=O)c1cnc2c(Cl)c(Cl)ccc2c1NCc1ccco1 [Compound 19],1.77,82.3,11.81,3.98,80.6,5.25,50.9,11.9,0.97,75,7.98,93.2,2.62,20.9,20.9,20.9,20.9,20.9,20.9,–,–
Cc1ccc(Nc2cc(C)nc3ccc(C)cc23)cc1 [Compound 6],9.86,91.2,3.57,38.7,79.1,0.91,187,76.8,42.7,–,2.73,77.7,12.9,35.2,35.2,35.2,35.2,35.2,35.2,11.7,EC50 [1]: 14 µM; HCV TI [1]: 0.84; EC50 (SINV (SR19-F-luc cells)): 2.3 µM
Cc1cc(Nc2ccc(C)c(Cl)c2)c2cccc(C)c2n1 [Compound 50],6.76,85.5,9.79,6.3,82,10.51,138,65.8,42.6,–,19.41,92.2,3.41,66.2,66.2,66.2,66.2,66.2,66.2,7.32,EC50 [1]: 8.62 µM; HCV TI [1]: 0.85
CCOC(=O)c1cnc2c(OC)cccc2c1NCc1ccco1 [Compound 67],1.2,98.3,24.88,–,33.5,–,5.39,68,86.6,20.1,–,70.7,–,29.9,29.9,29.9,29.9,29.9,29.9,–,–
Cc1ccc(Nc2c3c(nc4ccc(C)cc24)CCC3)cc1 [Compound 28],4.58,93.7,9.56,17.4,75.2,2.52,155,81.3,19.2,–,6.45,75,6.79,43.8,43.8,43.8,43.8,43.8,43.8,6.82,EC50 [1]: 7.47 µM; HCV TI [1]: 0.91; EC50 (SINV (SR19-F-luc cells)): 2.73 µM
CCOC(=O)c1cnc2c(OC)cccc2c1NCc1ccccc1 [Compound 62],3.73,99,11.66,–,67.7,–,-5.83,81.3,97.4,75,–,76.6,–,43.5,43.5,43.5,43.5,43.5,43.5,–,–
Cc1cccc(Nc2c3c(nc4ccccc24)CCC3)c1 [Compound 11],2.9,99.5,9.91,9.79,75,2.94,143,81.7,62.7,25.9,5.74,79.1,5.01,28.8,28.8,28.8,28.8,28.8,28.8,9.67,EC50 [1]: 3.37 µM; HCV TI [1]: 2.87; EC50 (SINV (SR19-F-luc cells)): 2.8 µM
Cc1cc(NNC(=O)OCc2ccccc2)c2ccccc2n1 [Compound 78],1.38,–,37.03,≥ 75,–,0.68,–,–,42.3,75,2.95,–,17.3,51.1,51.1,51.1,51.1,51.1,51.1,≥ 75,EC50 (SINV (SR19-F-luc cells)): 7.54 µM; EC50 (DNG (D2-hRuPac cells)): 57 µM
CCOc1ccc2nc(C)cc(Nc3ccc(Cl)cc3)c2c1 [Compound 59],3.26,99.7,6.5,10.9,83.7,1.94,140,93.5,92.2,3.23,4.82,84.6,4.4,21.2,21.2,21.2,21.2,21.2,21.2,7.45,EC50 [1]: 6.07 µM; HCV TI [1]: 1.23
